ChEMBL document CHEMBL3885861, “Open TG-GATES”

Organism: Rattus norvegicus
Assay: Open TG-GATES - Regimen: Single
Type: toxicity, organism-based, Sprague-Dawley
Design: regimen Single, gender Male, age 6 weeks
Details: in vivo, iv, 1 mg/kg, route intravenous injection, dose level Low; for APTT / Bas / Eos / Fbg / Hb / Ht / Lym / MCH / MCHC / MCV / Mono / Neu / PT / Plat / RBC / Ret / WBC: tissue Blood; for KIDNEY_L / KIDNEY_R / KIDNEY_TOTAL: tissue Kidney; for LIVER: tissue Liver

C[C@@H]1C[C@@H]([C@H](O)CC2CC(=O)NC(=O)C2)C(=O)[C@@H](C)C1 [CYCLOHEXIMIDE]
Na (6 h, tissue Plasma): 140.8 meq/L | PL (6 h, tissue Plasma): 74 mg/dL | RALB (6 h, tissue Plasma): 3 g/dL | TBIL (6 h, tissue Plasma): 0.01 mg/dL | TC (6 h, tissue Plasma): 42.8 mg/dL | TG (6 h, tissue Plasma): 83.8 mg/dL | TP (6 h, tissue Plasma): 5 g/dL | gamma-GTP (6 h, tissue Plasma): 1.4 IU/L | TERMINAL_BW (9 h): 216 g | APTT (9 h): 26 s | Bas (9 h): 0% | Eos (9 h): 0% | Fbg (9 h): 276.6 mg/dL | Hb (9 h): 13.8 g/dL | Ht (9 h): 41.2% | Lym (9 h): 70.2% | MCH (9 h): 21.1 pg | MCHC (9 h): 33.4% | MCV (9 h): 63.1 fL | Mono (9 h): 1.8% | Neu (9 h): 26.8% | PT (9 h): 20.4 s | Plat (9 h): 122.9 x10_4/uL | RBC (9 h): 653.8 x10_4/ul | Ret (9 h): 7% | WBC (9 h): 187.2 x10_2/uL | KIDNEY_L (9 h): 0.9 g | KIDNEY_R (9 h): 0.9 g | KIDNEY_TOTAL (9 h): 1.9 g | LIVER (9 h): 8.9 g | A/G (9 h, tissue Plasma): 1.4 | ALP (9 h, tissue Plasma): 1037.4 IU/L | ALT (9 h, tissue Plasma): 39.6 IU/L | AST (9 h, tissue Plasma): 78.2 IU/L | BUN (9 h, tissue Plasma): 16 mg/dL | CRE (9 h, tissue Plasma): 0.1 mg/dL | Ca (9 h, tissue Plasma): 9.5 mg/dL | Cl (9 h, tissue Plasma): 106.2 meq/L | DBIL (9 h, tissue Plasma): 0.008 mg/dL | GLC (9 h, tissue Plasma): 162.6 mg/dL | IP (9 h, tissue Plasma): 8.9 mg/dL | K (9 h, tissue Plasma): 3.9 meq/L | LDH (9 h, tissue Plasma): 205 IU/L | Na (9 h, tissue Plasma): 140.4 meq/L | PL (9 h, tissue Plasma): 90 mg/dL | RALB (9 h, tissue Plasma): 2.8 g/dL | TBIL (9 h, tissue Plasma): 0.022 mg/dL | TC (9 h, tissue Plasma): 56.2 mg/dL | TG (9 h, tissue Plasma): 38.4 mg/dL | TP (9 h, tissue Plasma): 4.8 g/dL | gamma-GTP (9 h, tissue Plasma): 1 IU/L | TERMINAL_BW (24 h): 227.7 g | APTT (24 h): 23.9 s | Bas (24 h): 0% | Eos (24 h): 0.2% | Fbg (24 h): 334.6 mg/dL | Hb (24 h): 13.2 g/dL | Ht (24 h): 39.8% | Lym (24 h): 85.4% | MCH (24 h): 20.5 pg | MCHC (24 h): 33.1% | MCV (24 h): 61.8 fL | Mono (24 h): 2% | Neu (24 h): 10.6% | PT (24 h): 16.8 s | Plat (24 h): 115.4 x10_4/uL | RBC (24 h): 643.4 x10_4/ul | Ret (24 h): 6% | WBC (24 h): 148.3 x10_2/uL | KIDNEY_L (24 h): 1 g | KIDNEY_R (24 h): 1 g | KIDNEY_TOTAL (24 h): 2 g | LIVER (24 h): 10.9 g | A/G (24 h, tissue Plasma): 1.3 | ALP (24 h, tissue Plasma): 1100.2 IU/L | ALT (24 h, tissue Plasma): 31.2 IU/L | AST (24 h, tissue Plasma): 53.4 IU/L | BUN (24 h, tissue Plasma): 12.2 mg/dL | CRE (24 h, tissue Plasma): 0.2 mg/dL | Ca (24 h, tissue Plasma): 10.2 mg/dL | Cl (24 h, tissue Plasma): 107.6 meq/L | DBIL (24 h, tissue Plasma): 0.006 mg/dL | GLC (24 h, tissue Plasma): 197.2 mg/dL | IP (24 h, tissue Plasma): 6.6 mg/dL
